Assay results published in patent US20090105301A1, “9A-SUBSTITUTED AZALIDES FOR THE TREATMENT OF MALARIA” (priority 2006, published 2009).
In brackets after ≈: the same amount, converted by molar mass.

Key:
[1] = tested on: P. falciparum D6 (CDC/Sierra Leone I, D-6); test: In vitro screening protocol I, [3H]-hypoxanthine incorporation, D6; format: cell-based, Plasmodium falciparum; settings: In vitro screening protocol I, P. falciparum D6; for IC50: Plasmodium falciparum, read-out: IC50 D6
Summary of the method: (§1)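 Asexual blood-stage P. falciparum was cultured in human A+ erythrocytes at 37 °C under 5% CO2/5% O2, and growth was measured by [3H]-hypoxanthine incorporation over 72 h total. TM91C235 was prescreened at 25,000, 2,500 and 25 ng/ml in folate-free medium. D-6 and W-2 IC50s came from 11-point two-fold dilutions by logistic fit.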

[2] = tested on: P. falciparum W2 (CDC/Indochina III, W-2); test: In vitro screening protocol I, [3H]-hypoxanthine incorporation, W2; format: cell-based, Plasmodium falciparum; settings: In vitro screening protocol I, P. falciparum W2; for IC50: Plasmodium falciparum, read-out: IC50 W2
Summary of the method: as §1

P. falciparum TM91C235 = test: In vitro screening protocol I, [3H]-hypoxanthine incorporation, TM91C235; format: cell-based, Plasmodium falciparum; settings: In vitro screening protocol I, P. falciparum TM91C235; for IC50: Plasmodium falciparum, read-out: IC50 TM91C235
[3] = tested on: Plasmodium falciparum strain W2; test: In vitro screening protocol II, [3H] hypoxanthine incorporation IC50 assay, W2; format: cell-based; settings: P. falciparum W2; for IC50: Plasmodium falciparum
Experimental: (§2) The protocol described here is a modification of the in vitro screening protocol I and the details of the methodology are given below.
(§3) Plasmodium falciparum strains 3D7A and W2.
(§4) The culture medium comprised RPMI 1640 with 25 mM HEPES, sodium bicarbonate and glutamine (GIBCO™ cat. ref.: 52400), supplemented with 10% of pooled human sera AB (Bioreclamation HMSRM-AB)) and HT supplement (0.15 mM hypoxanthine and 24 μM thymidine), (GIBCO™ cat. ref.: 41065). Human sera were decomplemented 30 min. at 56° C., aliquoted and stored frozen at −20° C. until use in this culture medium.
(§5) This culture medium (“complete medium”) was usually prepared fresh just before use and pre-warmed to 37° C.
(§6) Red blood cells AB− stock suspensions were prepared from whole blood bags coming from incomplete blood donation, provided by the Spanish Red Cross (<25 days after sampling). This “whole blood” was aliquoted and stored at 4° C.
(§7) To prepare red blood cells for the assay, the whole blood was centrifuged and washed 3 times with RPMI without serum. The upper phase, containing white blood cells was removed. The washed red blood cells were kept as a 50% suspension in complete medium. The prepared cells were stored at 4° C. and were employed in the assay at any time up to 4 days after preparation.
(§8) Test compounds were dissolved at 2 mg/ml in 100% DMSO on the day of the assay. If necessary, complete dissolution was achieved by gentle heating (the mixture was heated at a temperature <37° C.) and sonication (sonication bath).
(§9) For IC50 determinations, 10 serial 2-fold dilutions were prepared in complete medium in the presence of a constant amount of DMSO. Any obvious signs of insolubility of the stock solutions in 100% DMSO or precipitation when these solutions were diluted in assay media, were recorded.
(§10) Plasmodium falciparum strains were maintained in complete medium at 5% of hematocrit in continuous culture using a method adapted from Trager W. and Jensen J. B. (Human malaria parasites in continuous culture Science 193 (4254) (1976) 673-675) and Trager W. (Cultivation of malaria parasites Methods Cell Biol. 45 (1994) 7-26).
(§11) The parasitemia was calculated by counting the percentage of parasitized erythrocytes by optical microscopy. Thin films of blood were made every day from each culture flask, fixed with methanol and stained for 10 min. in Giemsa (Merck, cat ref.: 1.09204) at 10% in buffered water pH 7.2. The glass slides were observed and counted with an optical microscope (Nikon, Eclipse E200) equipped with a 100× immersion oil objective.
(§12) The culture was maintained at 5% of hematocrit, with a daily change of medium and was diluted when parasitemia had reached about 5%.
(§13) [^3H] Hypoxanthine incorporation assay was conducted using a method adapted from Desjardins R. E. et al. (Quantitative assessment of antimalarial activity in vitro by a semiautomated microdilution technique. Antimicrob. Agents Chemother., 16 (6) (1979) 710-718). The assays were performed in 96 wells flat bottom microplates.
(§14) 1. Serial dilutions of each test compound (25 μl of a 5× solution/well) were deposited in one row of assay microtiter plate. Compounds of this invention were tested in this assay. Chloroquine and Azithromycin were used as control compounds for each assay.
(§15) 2. […] 100 μl of the resulting suspension was distributed into each well of columns 1-11 of assay microtiter plate leading to a final volume of 125 μl per well, at 1.2% of hematocrit and 0.4% of parasitemia/well.
(§16) 3. In each plate, 2 columns were reserved for control wells: • Column 11 (comprising wells A11-H11): Positive control wells: Untreated PRBCs to compare with cultures treated with test compounds. • Column 12 (comprising wells A12-H12): • Background value wells: Uninfected RBCs—blank control to obtain the background reading from RBCs without parasites (at 1.2% of hematocrite value).
(§17) 4. The plates were incubated at 37° C. under low oxygen atmosphere. […]

[4] = tested on: Plasmodium falciparum strain 3D7A; test: In vitro screening protocol II, [3H] hypoxanthine incorporation IC50 assay, 3D7A; format: cell-based; settings: P. falciparum 3D7A; for IC50: Plasmodium falciparum
Experimental: as §2, §3, §4, §5, §6, §7, §8, §9, §10, §11, §12, §13, §14, §15, §16, §17

Plasmodium falciparum = settings: non-immune patients, as compared to controls; cited from earlier work
Plasmodium vivax = settings: non-immune patients, as compared to controls; cited from earlier work
Plasmodium cynomolgi = settings: rhesus monkey; cited from earlier work
Plasmodium berghei = settings: cited from earlier work
[5] = tested on: Plasmodium yoelii nigeriensis; settings: cited from earlier work

Molecule | IC50 W2 [3] | IC50 3D7A [4] | other results
CC[C@H]1OC(=O)[C@H](C)[C@@H](O[C@H]2C[C@@](C)(OC)[C@@H](O)[C@H](C)O2)[C@H](C)[C@@H](O[C@@H]2O[C@H](C)C[C@H](N(C)C)[C@H]2O)[C@](C)(O)C[C@@H](C)CN(CCCNCc2cccc3ccccc23)[C@H](C)[C@@H](O)[C@]1(C)O [Example 8, 9a-{3-[(Naphtalen-1-yl-methyl)amino]propyl}-9-deoxo-9-dihydro-9a-aza-9a-homoerythromycin A] |  |  | IC50 [1]: < 0.1 µg/mL; IC50 [2]: < 0.1 µg/mL; IC50 (P. falciparum TM91C235): < 0.1 µg/mL; IC50 [3]: < 0.1 µg/mL; IC50 [4]: 0.1 to 0.2 µg/mL (≈ 0.107 to 0.215 µM)
CC[C@H]1OC(=O)[C@H](C)[C@@H](O)[C@H](C)[C@@H](O[C@@H]2O[C@H](C)C[C@H](N(C)C)[C@H]2O)[C@](C)(O)C[C@@H](C)CN(CCCNCc2ccnc3ccccc23)[C@H](C)[C@@H](O)[C@]1(C)O [Example 15, 9a-{3-[(Quinolin-4-yl-methyl)amino]propyl}-3-O-decladinosyl-9-deoxo-9-dihydro-9a-aza-9a-homoerythromycin A] | C (200 < X ≦ 1000) | C (200 < X ≦ 1000) | IC50 D6 [1]: B (100 < X ≦ 200); IC50 W2 [2]: B (100 < X ≦ 200); IC50 TM91C235 (P. falciparum TM91C235): C (200 < X ≦ 1000)
CCC1OC(=O)C(C)C(OC2CC(C)(OC)C(O)C(C)O2)C(C)C(OC2OC(C)CC(N(C)C)C2O)C(C)(O)CC(C)CN(CCCNC(=O)CCC(=O)c2ccccc2)C(C)C(O)C1(C)O.O=CO (stereo not shown) [Example 65, 9a-{3-[(4-Oxo-4-phenylbutanoyl)amino]propyl}-9-deoxo-9-dihydro-9a-aza-9a-homoerythromycin A Formiate Salt] | D (1000 < X ≦ 2500) | G (3500 < X ≦ 5000) | 
CCC1OC(=O)C(C)C(OC2CC(C)(OC)C(O)C(C)O2)C(C)C(OC2OC(C)CC(N(C)C)C2O)C(C)(O)CC(C)CN(CCCNC(=O)c2cc(Cl)ccc2[N+](=O)[O-])C(C)C(O)C1(C)O.O=CO (stereo not shown) [Example 66, 9a-(3-{[(5-Chloro-2-nitrophenyl)carbonyl]amino}propyl)-9-deoxo-9-dihydro-9a-aza-9a-homoerythromycin A Formiate Salt] | C (200 < X ≦ 1000) | D (1000 < X ≦ 2500) | 
CC[C@H]1OC(=O)[C@H](C)[C@@H](O[C@H]2C[C@@](C)(OC)[C@@H](O)[C@H](C)O2)[C@H](C)[C@@H](O[C@@H]2O[C@H](C)C[C@H](N(C)C)[C@H]2O)[C@](C)(O)C[C@@H](C)CN(CCCNC(=O)Cc2ccccc2[N+](=O)[O-])[C@H](C)[C@@H](O)[C@]1(C)O.O=CO [Example 67, 9a-(3-{[(2-Nitrophenyl)acetyl]amino}propyl)-9-deoxo-9-dihydro-9a-aza-9a-homoerythromycin A Formiate Salt] | D (1000 < X ≦ 2500) | H (5000 < X ≦ 10000) | 
CCC1OC(=O)C(C)C(OC2CC(C)(OC)C(O)C(C)O2)C(C)C(OC2OC(C)CC(N(C)C)C2O)C(C)(O)CC(C)CN(CCCNC(=O)Cc2ccc(F)cc2)C(C)C(O)C1(C)O.O=CO (stereo not shown) [Example 68, 9a-(3-{[(4-Fluorophenyl)acetyl]amino}propyl)-9-deoxo-9-dihydro-9a-aza-9a-homoerythromycin A Formiate Salt] | C (200 < X ≦ 1000) | F (2800 < X ≦ 3500) | 
CCC1OC(=O)C(C)C(OC2CC(C)(OC)C(O)C(C)O2)C(C)C(OC2OC(C)CC(N(C)C)C2O)C(C)(O)CC(C)CN(CCCNC(=O)Cc2ccccc2F)C(C)C(O)C1(C)O.O=CO (stereo not shown) [Example 69, 9a-(3-{[(2-Fluorophenyl)acetyl]amino}propyl)-9-deoxo-9-dihydro-9a-aza-9a-homoerythromycin A Formiate Salt] | C (200 < X ≦ 1000) | G (3500 < X ≦ 5000) | 
CC[C@H]1OC(=O)[C@H](C)[C@@H](O[C@H]2C[C@@](C)(OC)[C@@H](O)[C@H](C)O2)[C@H](C)[C@@H](O[C@@H]2O[C@H](C)C[C@H](N(C)C)[C@H]2O)[C@](C)(O)C[C@@H](C)CN(CCCNC(=O)CCc2ccc(F)cc2)[C@H](C)[C@@H](O)[C@]1(C)O.O=CO [Example 70, 9a-(3-{[3-(4-Fluorophenyl)propanoyl]amino}propyl)-9-deoxo-9-dihydro-9a-aza-9a-homoerythromycin A Formiate Salt] | C (200 < X ≦ 1000) | D (1000 < X ≦ 2500) | 
CC[C@H]1OC(=O)[C@H](C)[C@@H](O[C@H]2C[C@@](C)(OC)[C@@H](O)[C@H](C)O2)[C@H](C)[C@@H](O[C@@H]2O[C@H](C)C[C@H](N(C)C)[C@H]2O)[C@](C)(O)C[C@@H](C)CN(CCCNC(=O)/C=C/c2cnc3ccccc3c2)[C@H](C)[C@@H](O)[C@]1(C)O [Example 76, 9a-(3-{[(2E)-3-(Quinolin-3-yl)-2-propenoyl]amino}propyl)-9-deoxo-9-dihydro-9a-aza-9a-homoerythromycin A] |  |  | IC50 [3]: 0.2 to 1 µg/mL (≈ 0.205 to 1.03 µM); IC50 [4]: 0.2 to 1 µg/mL (≈ 0.205 to 1.03 µM)
CC(=O)O.CC(=O)O.CC(=O)O.CCC1OC(=O)C(C)C(OC2CC(C)(OC)C(O)C(C)O2)C(C)C(OC2OC(C)CC(N(C)C)C2O)C(C)(O)CC(C)CN(CCCNc2ccnc3cc(Cl)ccc23)C(C)C(O)C1(C)O (stereo not shown) [Example 77] | A (X ≦ 100) | A (X ≦ 100) | 
CC(=O)O.CC(=O)O.CCC1OC(=O)C(C)C(OC2CC(C)(OC)C(O)C(C)O2)C(C)C(OC2OC(C)CC(N(C)C)C2O)C(C)(O)CC(C)CN(CCCNCc2ccnc3ccccc23)C(C)C(O)C1(C)O (stereo not shown) [Example 78, 9a-{3-[(Quinolin-4-yl-methyl)amino]propyl}-9-deoxo-9-dihydro-9a-aza-9a-homoerythromycin A Diacetate Salt] | A (X ≦ 100) | C (200 < X ≦ 1000) | 
CC(=O)O.CC(=O)O.CC(=O)O.CCC1OC(=O)C(C)C(O)C(C)C(OC2OC(C)CC(N(C)C)C2O)C(C)(O)CC(C)CN(CCCNc2ccnc3cc(Cl)ccc23)C(C)C(O)C1(C)O (stereo not shown) [Example 79] | A (X ≦ 100) | A (X ≦ 100) | 
CC[C@H]1OC(=O)[C@H](C)[C@@H](O[C@H]2C[C@@](C)(OC)[C@@H](O)[C@H](C)O2)[C@H](C)[C@@H](O[C@@H]2O[C@H](C)C[C@H](N(C)C)[C@H]2O)[C@](C)(O)C[C@@H](C)CN(C)[C@H](C)[C@@H](O)[C@]1(C)O [azithromycin, reference compound] |  |  | IC50 [1]: 1 to 2.5 µg/mL (≈ 1.34 to 3.34 µM); IC50 [2]: 2.8 to 3.5 µg/mL (≈ 3.74 to 4.67 µM); prophylactic efficacy (Plasmodium falciparum): 71.6%; IC50 (P. falciparum TM91C235): 3.5 to 5 µg/mL (≈ 4.67 to 6.68 µM); prophylactic efficacy (Plasmodium vivax): 98.9%; IC50 [3]: 2.5 to 2.8 µg/mL (≈ 3.34 to 3.74 µM); efficacy in monkey model (Plasmodium cynomolgi): active
midecamycinin |  |  | activity in mouse model (Plasmodium berghei): active; activity in mouse model [5]: active; efficacy in monkey model (Plasmodium cynomolgi): no efficacy
